Data on two compounds can be found in patent US6794371B1, “Aminoalkylenephosphonates for treatment of bone disorders” (The Dow Chemical Company, priority 1999, dated 2004).

For the experiment, the system named is ovariectomized rats (bone mineral density). The experiment can be described thus: Ovariectomized rat osteoporosis model, bone mineral density by dual energy X-ray absorptiometry (DEXA) (Example 2). The settings on record: 5 mg/kg.

Procedure: Eleven week old Female Sprague-Dawley laboratory rats (75) were fed a commercial rat diet and were allowed to drink water ad libitum. They were housed in pairs in an air-conditioned environment, and were allowed to enjoy 14 hours of illumination per day. Ten rats were sham-operated and were used as “non-osteopenic” control rats. All of the other rats were ovariectomized at 12 weeks of age. All surgeries were done under injectable anesthesia. […] The remaining rats were given various phosphonate compounds in groups of ten.
The rats were given doses three times during the first week and once a week thereafter.
All other compounds were dosed at 5 mg/kg. In this study, bone mineral density was determined by dual energy X-ray absorptiometry (DEXA).

Take `O=P(O)(O)CN(Cc1ccccn1)CP(=O)(O)O` [AMPDMP, N,N-bis(methylenephosphonic acid)-2-(aminomethyl)pyridine]: the “bone mineral density (BMD) over the study period, relative to OVX control group” value is “look even better”.

As for `O=P(O)(O)CN1Cc2cccc(n2)CN(CP(=O)(O)O)Cc2cccc(n2)C1` [BP2MP, N,N′-bis(methylenephosphonic acid)-2,11-diaza[3.3](2,6)pyridinophane], the “bone mineral density (BMD) over the study period, relative to OVX control group” value is “look even better”.
